Source: the Kinase Knowledgebase extract (Sharma et al. 2016)

Biological target: EGFR (UniProt P00533)
Sequence (P00533 whole entry, looked up): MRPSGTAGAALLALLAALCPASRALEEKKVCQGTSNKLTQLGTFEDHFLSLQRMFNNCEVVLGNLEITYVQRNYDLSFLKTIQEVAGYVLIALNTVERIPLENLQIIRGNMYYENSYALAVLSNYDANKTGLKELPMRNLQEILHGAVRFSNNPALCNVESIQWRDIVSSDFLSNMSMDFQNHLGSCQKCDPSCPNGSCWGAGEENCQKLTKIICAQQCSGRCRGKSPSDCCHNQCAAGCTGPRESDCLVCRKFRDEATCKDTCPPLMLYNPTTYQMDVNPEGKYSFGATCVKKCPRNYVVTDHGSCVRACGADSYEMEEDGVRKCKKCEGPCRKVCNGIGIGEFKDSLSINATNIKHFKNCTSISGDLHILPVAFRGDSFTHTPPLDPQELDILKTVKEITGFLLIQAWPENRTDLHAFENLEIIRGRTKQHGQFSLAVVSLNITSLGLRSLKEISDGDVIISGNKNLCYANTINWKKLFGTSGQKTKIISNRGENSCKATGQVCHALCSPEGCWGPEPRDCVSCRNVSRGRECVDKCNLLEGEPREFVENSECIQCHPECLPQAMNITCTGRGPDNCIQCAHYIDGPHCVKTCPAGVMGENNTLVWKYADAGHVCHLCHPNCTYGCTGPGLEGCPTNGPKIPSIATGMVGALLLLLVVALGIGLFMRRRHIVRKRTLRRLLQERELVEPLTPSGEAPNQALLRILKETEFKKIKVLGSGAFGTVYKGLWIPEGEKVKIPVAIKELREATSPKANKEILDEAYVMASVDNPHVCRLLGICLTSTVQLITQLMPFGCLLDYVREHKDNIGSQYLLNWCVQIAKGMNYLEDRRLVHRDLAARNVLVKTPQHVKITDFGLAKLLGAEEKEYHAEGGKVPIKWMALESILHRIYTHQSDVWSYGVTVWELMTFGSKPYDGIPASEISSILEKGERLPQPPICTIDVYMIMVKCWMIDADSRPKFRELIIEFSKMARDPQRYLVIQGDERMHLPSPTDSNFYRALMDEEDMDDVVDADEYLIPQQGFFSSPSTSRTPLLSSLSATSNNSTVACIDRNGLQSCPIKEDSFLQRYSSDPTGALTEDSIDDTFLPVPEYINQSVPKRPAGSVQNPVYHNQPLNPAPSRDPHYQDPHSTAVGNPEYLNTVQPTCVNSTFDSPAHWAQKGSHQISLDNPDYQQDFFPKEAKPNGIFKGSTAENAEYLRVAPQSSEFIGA

IC50, 0.003 to 25 µM:
Cc1ccc(Nc2ncnn3cccc23)cc1O
COC(=O)c1cn2ncnc(Nc3ccc4cn[nH]c4c3)c2c1C
COC(=O)c1cn2ncnc(Nc3ccc(F)c(Cl)c3)c2c1CCCOCc1ccccc1
Cc1c(C(=O)NCCCN2CCOCC2)cn2ncnc(Nc3ccc(Br)cc3)c12
Cc1ccc(Nc2ncnn3cc(C(=O)N4CCN(C)CC4)c(C)c23)cc1O
CCc1c(COCCN2CCOCC2)cn2ncnc(Nc3ccc4c(cnn4Cc4ccccc4)c3)c12
COC(=O)c1cc2c(Nc3ccc4c(cnn4Cc4ccccc4)c3)ncnn2c1
COC(=O)c1cn2ncnc(Nc3cc(CO)ccc3C)c2c1C
COC(=O)c1cn2ncnc(Nc3ccc(C#N)c(O)c3)c2c1C
Clc1ccc(Nc2ncnn3cccc23)cc1
CCOC(=O)c1cn2ncnc(N[C@H](C)c3ccccc3)c2c1CC
CCOC(=O)c1cn2ncnc(Nc3cccc4c3cnn4Cc3ccccc3)c2c1CC
COC(=O)c1cn2ncnc(C3C(=O)Nc4nc(C)ncc43)c2c1C (centres undefined)
CCOC(=O)c1cn2ncnc(Nc3ccc(C)c(O)c3)c2c1-c1ccccc1
Cc1c(OCCCn2cncn2)cn2ncnc(C3C(=O)Nc4ccccc43)c12 (centres undefined)
COCCCNC(=O)c1cn2ncnc(C3C(=O)Nc4ccccc43)c2c1C (centres undefined)
CCOC(=O)c1cn2ncnc(Nc3ccc(OC)nc3)c2c1CC
COC(=O)c1cn2ncnc(Nc3ccc(C)c(C)c3)c2c1C
CCOC(=O)c1cn2ncnc(Nc3cccc(Br)c3)c2c1CC
Cc1ccn2ncnc(Nc3ccc(Br)cc3F)c12
Cc1c(CCCN2CCOCC2)cn2ncnc(Nc3cccc(Br)c3)c12
CCc1c(C(=O)NCCN2CCCC2)cn2ncnc(Nc3ccc(OC)nc3)c12
COC(=O)c1cn2ncnc(-n3[nH]c4ccccc4c3=O)c2c1C
Cc1ccc(Nc2ncnn3cc(OCCCn4nccn4)c(C)c23)cc1O
Cc1c(C(=O)NCCN2CCOCC2)cn2ncnc(C3C(=O)Nc4ccccc43)c12 (centres undefined)
Cc1ccc(Nc2ncnn3cc(C(=O)O)c(C)c23)cc1O
COc1cn2ncnc(C3C(=O)Nc4ccccc43)c2c1OC (centres undefined)
CCc1c(CO)c(Br)n2ncnc(Nc3ccc4c(cnn4Cc4ccccc4)c3)c12
CCCc1ccc(Nc2ncnn3cc(C(=O)OC)c(C)c23)cc1O
CCOC(=O)c1cn2ncnc(N3CCC4C=CC=CC4C3)c2c1CC (centres undefined)
CCOC(=O)c1cn2ncnc(Nc3ccc(C)c(O)c3)c2c1OC
Cc1cc2c(Nc3ccc(Br)cc3F)ncnn2c1
Cc1c(OCCCn2nccn2)cn2ncnc(Nc3ccc(Br)cc3F)c12
Cc1c(C(=O)NCCCN2CCOCC2)cn2ncnc(C3C(=O)Nc4cc(F)ccc43)c12 (centres undefined)
CNS(=O)(=O)c1ccc2c(c1)C(c1ncnn3cc(C(=O)OC)c(C)c13)C(=O)N2 (centres undefined)
Cc1c(C(=O)NCCCCN2CCOCC2)cn2ncnc(C3C(=O)Nc4ccccc43)c12 (centres undefined)
CCOC(=O)c1cn2ncnc(NCCOC)c2c1CC
COC(=O)c1cn2ncnc(Nc3cccc(C#N)c3)c2c1C
CCOC(=O)c1cn2ncnc(Nc3ccc4c(cnn4Cc4ccccc4)c3)c2c1CC
CCc1c(C(=O)NCCCn2ccnc2)cn2ncnc(Nc3ccc4c(cnn4Cc4ccccc4)c3)c12
COC(=O)c1cc2c(Nc3ccc(F)c(Cl)c3)ncnn2c1
CCc1ccc(Nc2ncnn3cc(C(=O)NCCCN4CCOCC4)c(C)c23)cc1O
COC(=O)c1cn2ncnc(Nc3ccc4c(c3)N(C(C)=O)CC4)c2c1C
CCc1c(C(=O)NCCN2CCOCC2)c(Br)n2ncnc(Nc3ccc4c(cnn4Cc4ccccc4)c3)c12
COc1c(C(=O)NCCN2CCCC2)cn2ncnc(Nc3ccc(Br)cc3F)c12
Clc1ccc(Nc2ncnn3c(Br)ccc23)cc1
Cc1ccc(Nc2ncnn3cc(CO)c(C)c23)cc1O
CCOC(=O)c1cn2ncnc(Nc3ccc(Br)cc3)c2c1CC
CCc1c(C(=O)OCc2ccccc2)cn2ncnc(Nc3ccc(F)c(Cl)c3)c12
COC(=O)c1cn2ncnc(Nc3cccc(C(=O)NN)c3)c2c1C
CCOC(=O)c1cn2ncnc(Nc3ccc4cn[nH]c4c3)c2c1CC
CCOC(=O)c1cn2ncnc(Nc3ccc4c(cnn4Cc4ccccc4)c3)c2c1Cc1ccccc1
COC(=O)c1cn2ncnc(C3C(=O)Nc4ccc(NS(C)(=O)=O)cc43)c2c1C (centres undefined)
COC(=O)c1cn2ncnc(-n3[nH]c(C)cc3=O)c2c1C
CCOC(=O)c1cn2ncnc(Nc3ccc(Oc4ccccc4)cc3)c2c1CC
Cc1ccc(Nc2ncnn3cc(Cn4cncn4)c(C)c23)cc1O
Cc1ccc2c(Nc3ccc(Br)cc3F)ncnn12
CCOC(=O)c1cn2ncnc(NCc3ccccc3)c2c1CC
COC(=O)c1cn2ncnc(Nc3cccc4cnccc34)c2c1C
COc1c(C(=O)NCCCN2CCOCC2)cn2ncnc(C3C(=O)Nc4ccccc43)c12 (centres undefined)
CCOC(=O)c1cn2ncnc(Nc3ccc4c(cnn4Cc4ccccc4)c3)c2c1C(C)C
COC(=O)c1cn2ncnc(Nc3nc4ccccc4s3)c2c1C
COC(=O)c1cn2ncnc(Nc3ccc(OC)c(O)c3)c2c1C
COc1c(OCc2ccccc2)cn2ncnc(C3C(=O)Nc4ccccc43)c12 (centres undefined)
COC(=O)c1cn2ncnc(Nc3cc(C)cc(O)c3)c2c1C
CCOC(=O)c1cn2ncnc(NCc3ccc(Br)cc3)c2c1CC
COC(=O)c1cn2ncnc(Nc3ccc4cc[nH]c4c3)c2c1C
CCOC(=O)c1cn2ncnc(Nc3ccc(OC)nc3)c2c1OC
COC(=O)c1cn2ncnc(Nc3ccc(C)c(S(N)(=O)=O)c3)c2c1C
CCc1ccn2ncnc(Nc3ccc(C)c(O)c3)c12
COC(=O)c1cn2ncnc(Nc3ccc4c(=O)[nH][nH]c(=O)c4c3)c2c1C
CCOC(=O)c1cn2ncnc(NCC3CCCCC3)c2c1CC
CCC(C)NC(=O)c1cn2ncnc(C3C(=O)Nc4ccccc43)c2c1C (centres undefined)
COC(=O)c1cn2ncnc(C3C(=O)Nc4ccc(S(=O)(=O)N(C)C)cc43)c2c1C (centres undefined)
Cc1nc(C2C(=O)Nc3ccccc32)c2c(C)c(C(=O)NCCCN3CCOCC3)cn2n1 (centres undefined)
CCc1c(C(=O)NCCN2CCCC2)cn2nc(C)nc(Nc3ccc(OC)nc3)c12
COC(=O)c1cn2ncnc(Nc3ccc(C)c([N+](=O)[O-])c3)c2c1C
COC(=O)c1cn2ncnc(Nc3ccc(C)c(F)c3)c2c1C
CCOC(=O)c1cn2ncnc(N3CCOCC3)c2c1CC
COC(=O)c1cn2ncnc(Nc3ccc(Br)c(O)c3)c2c1C
Cc1c(C(=O)CCN2CCN(C)CC2)cn2ncnc(C3C(=O)Nc4ccccc43)c12 (centres undefined)
Cc1c(C(=O)NCCCN2CCOCC2)cn2ncnc(C3C(=O)Nc4ccc(F)cc43)c12 (centres undefined)
CC(=O)N1CCc2ccc(Nc3ncnn4cccc34)cc21
COc1c(NCCCCN2CCN(C)CC2)cn2ncnc(C3C(=O)Nc4ccccc43)c12 (centres undefined)
COCCNC(=O)c1cn2ncnc(C3C(=O)Nc4ccccc43)c2c1C (centres undefined)
COC(=O)c1cn2ncnc(Nc3cc(C)[nH]n3)c2c1C
COC(=O)c1cc2c(C3C(=O)Nc4ccccc43)ncnn2c1 (centres undefined)
Cc1c(OCCn2cncn2)cn2ncnc(C3C(=O)Nc4ccccc43)c12 (centres undefined)
Cc1c(C(=O)O)cn2ncnc(C3C(=O)Nc4ccccc43)c12 (centres undefined)
CCc1c(CO)cn2ncnc(Nc3ccc4c(cnn4Cc4ccccc4)c3)c12
CCCc1c(C(=O)NCCCN2CCCC2)cn2ncnc(Nc3ccc(C)c(O)c3)c12
Cc1c(N(C)C)c(CO)n2ncnc(C3C(=O)Nc4ccccc43)c12 (centres undefined)
Cc1c(C(=O)NCCCn2ccnn2)cn2ncnc(C3C(=O)Nc4ccccc43)c12 (centres undefined)
COC(=O)c1cn2ncnc(Nc3ccc4c(c3)NCC4)c2c1C
COC(=O)CCc1cn2ncnc(C3C(=O)Nc4ccccc43)c2c1C (centres undefined)
COC(=O)c1cn2ncnc(Nc3ccc4[nH]nnc4c3)c2c1C
CCCCNS(=O)(=O)c1cccc(Nc2ncnn3cc(C(=O)OC)c(C)c23)c1
CCOC(=O)c1cn2ncnc(N3CCCC4C=CC=CC43)c2c1CC (centres undefined)
Cc1ccc(Nc2ncnn3c(C)cc(C)c23)cc1O
CCOC(=O)c1cn2ncnc(Nc3ccc(Cl)nc3)c2c1CC
COc1c(C(=O)N(C)CCN2CCCC2)cn2ncnc(Nc3ccc(Br)cc3F)c12
CCCCc1ccc(Nc2ncnn3cc(C(=O)OC)c(C)c23)cc1O
COC(=O)c1cn2ncnc(Nc3ccc(F)c(Cl)c3)c2c1C
COC(=O)c1cn2ncnc(C3C(=O)Nc4ccc(C(N)=O)cc43)c2c1C (centres undefined)
COc1c(NCCCCN2CCOCC2)cn2ncnc(C3C(=O)Nc4ccccc43)c12 (centres undefined)
COc1c(C(=O)NCCCn2cncn2)cn2ncnc(C3C(=O)Nc4ccccc43)c12 (centres undefined)
CCOC(=O)c1cn2ncnc(Nc3ccc(OC)nc3)c2c1C
CCOC(=O)c1cn2ncnc(Nc3ccc(C)c(O)c3)c2c1OCC
COC(=O)c1cn2ncnc(Nc3ccc(O)c(C(=O)O)c3)c2c1C
CCOC(=O)c1cn2ncnc(C3C(=O)Nc4ccccc43)c2c1CC (centres undefined)
Cc1c(C(=O)NCCCN2CCOCC2)cn2ncnc(C3C(=O)Nc4ccccc43)c12 (centres undefined)
CCOC(=O)c1cn2ncnc(NCCc3ccccc3)c2c1CC
Cc1c(C(=O)NCCCN2CCCC2)cn2ncnc(C3C(=O)Nc4ccccc43)c12 (centres undefined)
CCOC(=O)c1cn2ncnc(NCC3CCC(C#N)CC3)c2c1CC (centres undefined)
